Measured values published in BindingDB's records for doi:10.7270/Q2639NCQ (The Scripps Research Institute Molecular Screening Center, 2013).

Target: T1, Mitochondrial peptide methionine sulfoxide reductase (Bos taurus, UniProt P54149)
T1 sequence (P54149 whole entry): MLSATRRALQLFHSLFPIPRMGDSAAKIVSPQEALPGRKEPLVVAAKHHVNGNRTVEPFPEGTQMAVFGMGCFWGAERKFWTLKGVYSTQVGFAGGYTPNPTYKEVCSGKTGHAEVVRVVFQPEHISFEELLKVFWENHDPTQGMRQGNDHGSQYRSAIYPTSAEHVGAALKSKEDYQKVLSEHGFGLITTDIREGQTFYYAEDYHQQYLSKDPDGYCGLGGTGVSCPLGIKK

Structure (SMILES)	IC50
[O-][N+]1=c2ccc(Nc3ccccc3)cc2=NC12CCCCC2 [1-oxido-N-phenyl-5-spiro[benzimidazol-1-ium-2,1'-cyclohexane]amine]	> 155 µM
CCOc1cc(S(=O)(=O)N(CC)CC)c(OCC)cc1-n1cnnn1 [2,5-diethoxy-N,N-diethyl-4-(1,2,3,4-tetrazol-1-yl)benzenesulfonamide]	> 155 µM
c1ccc2c(c1)CCCN2c1nc2ccccc2n2cnnc12 [4-(3,4-dihydro-2H-quinolin-1-yl)-[1,2,4]triazolo[4,3-a]quinoxaline]	> 155 µM
COc1ccc(CNC(=O)c2c(C)oc3c2C(=O)c2ccccc2C3=O)cc1	> 155 µM
COc1cccc(Nc2nc3ccccc3n3nnnc23)c1 [N-(3-methoxyphenyl)-[1,2,3,4]tetrazolo[1,5-a]quinoxalin-4-amine]	> 155 µM
O=C1N=C(N2C=CC(c3ccncc3)C=C2)C(=CN=NC(=O)c2ccccc2)S1	> 155 µM
CC(C)(C)c1cc([N+](=O)[O-])cc(C(C)(C)C)c1O [MLS000755910]	> 155 µM
CC1=CC(=C(C#N)C#N)C=C(C)N1CCN1CCNCC1 [2-[2,6-dimethyl-1-(2-piperazin-1-ylethyl)pyridin-4-ylidene]propanedinitrile]	> 155 µM
Cc1ccccc1-n1c(SCc2cccc(F)c2)nc2[nH]ncc2c1=O [6-[(3-fluorobenzyl)thio]-5-(2-methylphenyl)-2,5-dihydro-4H-pyrazolo[3,4-d]pyrimidin-4-one]	> 155 µM
Cc1cc(/C=C(/C#N)c2cccc(F)c2)c(C)n1-c1cccnc1 [3-[2,5-dimethyl-1-(3-pyridinyl)-1H-pyrrol-3-yl]-2-(3-fluorophenyl)acrylonitrile]	> 155 µM
CC(=O)c1cccc(Oc2cc(NN3CCCCC3)c([N+](=O)[O-])cc2[N+](=O)[O-])c1 [1-[3-[2,4-dinitro-5-(1-piperidinylamino)phenoxy]phenyl]ethanone]	> 155 µM
Cc1c(OCC(N)=O)ccc2c(-c3ccccc3)cc(=O)oc12 [2-(8-methyl-2-oxidanylidene-4-phenyl-chromen-7-yl)oxyethanamide]	> 155 µM
CCc1nccn1C(=O)c1cnn2c(C(F)F)cc(-c3ccc(C)cc3)nc12 [7-(difluoromethyl)-3-[(2-ethyl-1H-imidazol-1-yl)carbonyl]-5-(4-methylphenyl)pyrazolo[1,5-a]pyrimidine]	> 155 µM
CCSc1nc(N2CCOCC2)c2c(c1C#N)CCCC2 [3-(ethylthio)-1-(4-morpholinyl)-5,6,7,8-tetrahydroisoquinoline-4-carbonitrile]	> 155 µM
O=Cc1cn(-c2ccccc2)nc1-c1ccc2c(c1)OCCO2 [3-(2,3-Dihydro-benzo[1,4]dioxin-6-yl)-1-phenyl-1H-pyrazole-4-carbaldehyde]	> 155 µM
O=C(O)c1cccc(NS(=O)(=O)c2ccc3c(c2)C(=O)c2ccccc2C3=O)c1 [3-[[9,10-bis(oxidanylidene)anthracen-2-yl]sulfonylamino]benzoic acid]	> 155 µM
CCc1noc(C)c1C(=O)Nc1nc(-c2ccc(F)cc2)c(C)s1 [3-ethyl-N-[4-(4-fluorophenyl)-5-methyl-1,3-thiazol-2-yl]-5-methyl-1,2-oxazole-4-carboxamide]	> 155 µM
Cc1ccc(Nc2ccc(C(F)(F)F)cc2[N+](=O)[O-])cc1	> 155 µM
Cc1ccnc(N2C(=O)c3cccc4c([N+](=O)[O-])ccc(c34)C2=O)c1 [2-(4-Methyl-pyridin-2-yl)-6-nitro-benzo[de]isoquinoline-1,3-dione]	> 155 µM
O=C1C(Cl)=C(Nc2ccc3cn[nH]c3c2)C(=O)c2ccccc21	> 155 µM
O=C(c1ccco1)c1cc2c(ccc3ccccc32)oc1=O [2-(furan-2-ylcarbonyl)benzo[f]chromen-3-one]	> 155 µM
CC(Nc1cc(N2CCN(S(C)(=O)=O)CC2)ccc1[N+](=O)[O-])c1ccccc1 (configuration not stated) [5-[4-(methylsulfonyl)-1-piperazinyl]-2-nitro-N-(1-phenylethyl)aniline]	> 155 µM
CC(Nc1ccc([N+](=O)[O-])cc1[N+](=O)[O-])c1ccccc1 (configuration not stated)	> 155 µM
COc1ccc(-c2cc(=O)oc3c(C)c(OC(C)C(C)=O)ccc23)cc1 (configuration not stated) [4-(4-methoxyphenyl)-8-methyl-7-(3-oxobutan-2-yloxy)-1-benzopyran-2-one]	> 155 µM
CC(=O)COc1ccc2c(-c3ccccc3)cc(=O)oc2c1C [8-methyl-7-(2-oxidanylidenepropoxy)-4-phenyl-chromen-2-one]	> 155 µM
COC(=O)CN(c1nc(C)c(Br)c(OC)n1)S(=O)(=O)c1ccccc1 [[Benzenesulfonyl-(5-bromo-4-methoxy-6-methyl-pyrimidin-2-yl)-amino]-acetic acid methyl ester]	> 155 µM
Cc1cc(C)c2nc(C(F)(F)F)nc(N3CC(C)OC(C)C3)c2c1 (configuration not stated) [4-(2,6-dimethyl-4-morpholinyl)-6,8-dimethyl-2-(trifluoromethyl)quinazoline]	> 155 µM
O=C(O)c1cc(O)c2c(c1)C(=O)c1cccc(O)c1C2=O [RHEIN]	> 155 µM

Next, values leading:

IC50	Structure (SMILES)
> 155 µM	Cc1ccc(Nc2ccc(C(N)=O)cc2[N+](=O)[O-])cc1C [MLS000334544]
> 155 µM	COc1ccc(Nc2ccc(C(F)(F)F)cc2[N+](=O)[O-])cn1 [SMR000688981]
> 155 µM	Cc1ccccc1Nc1c(N)c(=O)oc2ccccc12 [MLS000563389]
> 155 µM	COC(=O)COc1ccc2oc(=O)cc(-c3cc4cccc(OC)c4o3)c2c1 [MLS001167553]
> 155 µM	CCOC(=O)C(C#N)C=Nc1ccccc1OC (configuration not stated) [MLS000568396]
> 155 µM	Cc1nn(Cc2ccc(Cl)cc2)c(=O)n1N(C)c1ncc(C(F)(F)F)cc1Cl [MLS000541367]
> 155 µM	CCOc1ccc(N(C)S(=O)(=O)c2cc(-c3cc(C)no3)ccc2C)cc1 [SMR000630369]
> 155 µM	c1ccc2c(c1)nc(-c1ccncc1)n1nnnc21 [SMR000060326]
> 155 µM	Cc1ccc(NS(=O)(=O)c2ccc3c(c2)C(=O)c2ccccc2C3=O)c(C)c1 [SMR000207645]
> 155 µM	O=C(COC(=O)C1=NN(c2ccccc2)C(=O)CC1)Nc1ccc([N+](=O)[O-])cc1C(F)(F)F [SMR001244149]
> 155 µM	FC(F)(F)c1ccc(/N=C/c2sc(N3CCOCC3)nc2-c2ccccc2)cc1 [SMR000260329]
> 155 µM	Cc1cc(OC(C)C)c2c(-c3ccccc3)cc(=O)oc2c1 [SMR000141385]
> 155 µM	CSc1nc2nc3c(c-2c2nn[nH]n12)CCCC3 [MLS000071223]
> 155 µM	COc1ccc2[nH]c(C(=O)N/N=C/c3ccc(OC)c(O)c3)cc2c1 [MLS001214387]
> 155 µM	N#CC(C=Nc1ccccc1O)c1nc2ccccc2o1 (configuration not stated) [SMR000171441]
> 155 µM	Cc1ccc(CC2(C)C(=O)Nc3ccc(OC(F)(F)F)cc32)cc1 (configuration not stated) [SMR001453901]
> 155 µM	COc1ccc(-c2cc(C(F)F)n3ncc(C(=O)n4ccnc4C)c3n2)cc1 [MLS000581677]
> 155 µM	COc1ccc(/C=N/N2C(=O)C3C4C=CC(C4)C3C2=O)cc1[N+](=O)[O-] (configuration not stated) [SMR000283338]
> 155 µM	CC(Nc1cc(N2CCN(S(=O)(=O)N(C)C)CC2)ccc1[N+](=O)[O-])c1ccccc1 (configuration not stated) [MLS000676463]
